Experimental data: patent US4652649A, “Anti-spasmodic agents having a ring in the main chain” (United Pharmaceuticals, Inc., priority 1985, dated 1987)
Counter-ions that a name gives are not always drawn.

How the values were obtained:
muscarinic receptors = type: binding, rabbit (New Zealand White); settings: at a concentration of 1.0 × 10^-5 M; rabbit lung homogenate, 0.1 nM [3H]QNB, 37° C., 60 min
[1] = system: gastrointestinal tract, biliary tract, ureter and uterus; settings: cited from earlier work

Row | Compound | % inhibition of 3H[QNB] binding (muscarinic receptors) | decrease spasm of the gastrointestinal tract, biliary tract, ureter and uterus ([1]; in vivo) | atropinic side effects ([1]; salivary and sweat glands, GI glands, the eye or the cardiovascular system)
1 | CCN(CC)CCSC(=O)c1ccc(C(C)(C)C)cc1 [4-t-butyl-benzoyl-thio-S-(2-diethylaminoethyl)-ester.HCl] | 21% | – | –
2 | CCN(CC)CCSC(=O)C(c1ccccc1)c1ccccc1 [Thiphenamil hydrochloride] | – | decrease spasm of the gastrointestinal tract, biliary tract, ureter and uterus | without producing characteristic atropinic side effects
